Assay results from PubChem BioAssay (NCI).
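GI50 marks 50% less growth. TGI denotes the concentration required for complete inhibition of growth.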

Experiments:
Experiment in all cases: growth of human tumour cells (NCI), 384-well format
[1] = tested on: MCF7 breast
[2] = tested on: OVCAR-3 ovarian
[3] = tested on: NCI-H322M lung
[4] = tested on: HL-60(TB) leukemia
[5] = tested on: EKVX NSCLC
[6] = tested on: KM12 colon
[7] = tested on: HCT-15 colon
[8] = tested on: MOLT-4 leukemia
[9] = tested on: HOP-92 NSCLC
[10] = tested on: SNB-75 CNS
[11] = tested on: SN12C renal
[12] = tested on: UACC-257 melanoma
[13] = tested on: CCRF-CEM leukemia
[14] = tested on: IGROV1 ovarian
[15] = tested on: NCI-H460 NSCLC
[16] = tested on: MDA-MB-231 breast
[17] = tested on: BT-549 breast
[18] = tested on: OVCAR-4 ovarian
[19] = tested on: SK-OV-3 ovarian
[20] = tested on: MALME-3M melanoma
[21] = tested on: TK-10 renal
[22] = tested on: OVCAR-8 ovarian
[23] = tested on: DU-145 prostate
[24] = tested on: UO-31 renal
[25] = tested on: SF-268 CNS
[26] = tested on: NCI-H23 lung
[27] = tested on: RXF 393 renal
[28] = tested on: U251 glioblastoma
[29] = tested on: SK-MEL-5 melanoma
[30] = tested on: HS 578T breast
[31] = tested on: A549 NSCLC
[32] = tested on: COLO 205 colon
[33] = tested on: NCI-H226 lung
[34] = tested on: SF-539 CNS
[35] = tested on: MDA-MB-435 melanoma
[36] = tested on: HCT-116 colon
[37] = tested on: M14 melanoma
[38] = tested on: RPMI-8226 leukemia
[39] = tested on: HCC-2998 colon
[40] = tested on: NCI/ADR-RES ovarian
[41] = tested on: NCI-H522 lung
[42] = tested on: PC-3 prostate
[43] = tested on: SR leukemia
[44] = tested on: CAKI-1 renal
[45] = tested on: HOP-62 NSCLC
[46] = tested on: MDA-MB-468 breast
[47] = tested on: UACC-62 melanoma
[48] = tested on: SK-MEL-28 melanoma
[49] = tested on: SF-295 CNS
[50] = tested on: HT29 colon
[51] = tested on: 786-0 renal
[52] = tested on: T-47D breast
[53] = tested on: A498 renal
[54] = tested on: K-562 leukemia
[55] = tested on: ACHN renal
[56] = tested on: LOX IMVI melanoma
[57] = tested on: SW-620 colon
[58] = tested on: SNB-19 CNS

## NC1CCC(N[C@@H]2C[C@H]2c2ccccc2)CC1 (stereo partly specified)
[1]
  GI50: > 100 µM
  TGI: > 100 µM
[2]
  GI50: 25 µM
  TGI: > 100 µM
[3]
  GI50: 86.4 µM
  TGI: > 100 µM
[4]
  GI50: 10.2 µM
  TGI: 28.9 µM
[5]
  GI50: 40.2 µM
  TGI: > 100 µM
[6]
  GI50: 61.9 µM
  TGI: > 100 µM
[7]
  GI50: 34.1 µM
  TGI: > 100 µM
[8]
  GI50: 24 µM
  TGI: 77.8 µM
[9]
  GI50: 35.9 µM
  TGI: > 100 µM
[10]
  GI50: > 100 µM
  TGI: > 100 µM
[11]
  GI50: > 100 µM
  TGI: > 100 µM
[12]
  GI50: 17.5 µM
  TGI: 33.1 µM
[13]
  GI50: 31.5 µM
  TGI: > 100 µM
[14]
  GI50: 48.8 µM
  TGI: > 100 µM
[15]
  GI50: 77 µM
  TGI: > 100 µM
[16]
  GI50: 90.5 µM
  TGI: > 100 µM
[17]
  GI50: 46.2 µM
  TGI: > 100 µM
[18]
  GI50: > 100 µM
  TGI: > 100 µM
[19]
  GI50: > 100 µM
  TGI: > 100 µM
[20]
  GI50: 21 µM
  TGI: 47.3 µM
[21]
  GI50: > 100 µM
  TGI: > 100 µM
[22]
  GI50: 49.4 µM
  TGI: > 100 µM
[23]
  GI50: 87.1 µM
  TGI: > 100 µM
[24]
  GI50: 32.5 µM
  TGI: > 100 µM
[25]
  GI50: 76.2 µM
  TGI: > 100 µM
[26]
  GI50: 71.2 µM
  TGI: > 100 µM
[27]
  GI50: 32.1 µM
  TGI: > 100 µM
[28]
  GI50: 44.4 µM
  TGI: > 100 µM
[29]
  GI50: 41.4 µM
  TGI: > 100 µM
[30]
  GI50: 37.5 µM
  TGI: > 100 µM
[31]
  GI50: > 100 µM
  TGI: > 100 µM
[32]
  GI50: 66.7 µM
  TGI: > 100 µM
[33]
  GI50: > 100 µM
  TGI: > 100 µM
[34]
  GI50: 23.4 µM
  TGI: 64.1 µM
[35]
  GI50: 38.1 µM
  TGI: > 100 µM
[36]
  GI50: 41.6 µM
  TGI: > 100 µM
[37]
  GI50: 20.9 µM
  TGI: 40.2 µM
[38]
  GI50: 41.5 µM
  TGI: > 100 µM
[39]
  GI50: 40.1 µM
  TGI: > 100 µM
[40]
  GI50: > 100 µM
  TGI: > 100 µM
[41]
  GI50: 94.1 µM
  TGI: > 100 µM
[42]
  GI50: 64.7 µM
  TGI: > 100 µM
[43]
  GI50: 6.76 µM
  TGI: 18.6 µM
[44]
  GI50: 35.2 µM
  TGI: > 100 µM
[45]
  GI50: 66.9 µM
  TGI: > 100 µM
[46]
  GI50: 58.9 µM
  TGI: > 100 µM
[47]
  GI50: 19.4 µM
  TGI: 38.2 µM
[48]
  GI50: 32.2 µM
  TGI: > 100 µM
[49]
  GI50: > 100 µM
  TGI: > 100 µM
[50]
  GI50: 20 µM
  TGI: 43.7 µM
[51]
  GI50: 33.4 µM
  TGI: > 100 µM
[52]
  GI50: > 100 µM
  TGI: > 100 µM
[53]
  GI50: 28.3 µM
  TGI: > 100 µM
[54]
  GI50: 31.4 µM
  TGI: > 100 µM
[55]
  GI50: > 100 µM
  TGI: > 100 µM
[56]
  GI50: 36.2 µM
  TGI: > 100 µM
[57]
  GI50: > 100 µM
  TGI: > 100 µM
[58]
  GI50: > 100 µM
  TGI: > 100 µM
